# Laboratory results reported in PMC6934184, “Selective DNA-PKcs inhibition extends the therapeutic index of localized radiotherapy and chemotherapy” (The Journal of Clinical Investigation, 2019).
# Target: T1, EEF2K (Homo sapiens, UniProt O00418)
# T1 construct: purchased Thermo Fisher Scientific (Life Technologies) SelectScreen
# Assay: SelectScreen Z'LYTE
# Assay type: biochemical
# Procedure, shortened: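 Compound tested in SelectScreen activity assays, Z'LYTE for CSF1R, CDK1/cyclin B and MAP2K6 and Adapta for CAMK1. ATP for CAMK1 was listed as 10, and Km app was used for CSF1R. Results are expressed in percent.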
structure (smiles),measurement,value
CN(C(=O)CN1CCOCC1)c1ccc2sc3c(-c4cccc5c(=O)cc(N6CC7CCC(C6)O7)oc45)cccc3c2c1 [NU5455],inhibition at 1 µM,-2.4%
